Data set [1] can be described thus: Water solubility of saturated solutions at pH 7.0, measured by HPLC. The conditions noted are these: metalaxyl and prothioconazole as separate compounds (0.2 g each in one bottle), 10 mL pH 7.0 buffer, stirred about 12 hours at 20° C.±1° C.
Method: A saturated solution of metalaxyl and prothioconazole as separate compounds was prepared by the following procedure: 0.2 grams each of metalaxyl and prothioconazole were weighed and placed into a 0.5 oz bottle. 10 mL of pH 7.0 (Fisher #SB107-500) was added to the bottle. A magnetic stir bar was added to the bottle and the bottle was capped and shaken. The bottle was placed on a magnetic stirrer for about 12 hours at a temperature of 20° C.±1° C. stirring on low.
10 mL of pH 7.0 (Fisher #SB107-500) was added to the bottle. A magnetic stir bar was added to the bottle and the bottle was capped and shaken. The bottle was placed on a magnetic stirrer for about 12 hours in a room at 20° C.±1° C., stirring on low.
For data set [2] the following is noted: water solubility measurements at pH 7.0 in an aspect, cited from earlier work.

≈ marks a conversion by molar mass, not a printed value. Like-named read-outs stand apart in the source and are kept apart here.

In the case of `COCC(=O)N(c1c(C)cccc1C)C(C)C(=O)OC` (racemic) [metalaxyl, N-(2,6-dimethylphenyl)-N-(methoxyacetyl)-DL-alanine methyl ester], the “solubility at pH 7.0” value in data set [1] is recorded as 0.62%. The water solubility result in data set [2] (at 22° C.) is recorded as “about 8.4 g/l”.
As to `OC(Cc1ccccc1Cl)(Cn1nc[nH]c1=S)C1(Cl)CC1` (stereo not shown) [prothioconazole, 2-[2-(1-chlorocyclopropyl)-3-(2-chlorophenyl)-2-hydroxypropyl]-1,2-dihydro-3H-1,2,4-triazole-3-thione], in data set [1], the “solubility at pH 7.0” value stood at 0.0002%. The water solubility in data set [2] (at 25° C.) is 0.61 µg/mL (≈ 1.77 µM).

These data come from US9795137B2, “Metalaxyl and prothioconazole cocrystals and methods of making and using” (Bayer CropScience LP, priority 2012, dated 2017).
